“And” between values parts separate entries of the source, which are not always exact repeats. Equal entries are not always repeated. Where two headings read alike, the source gives them in different places.
What was measured:
Format in all cases: in vivo, pig
[1] = tested on: intrapulmonary mRNA of IL-1β, IL-6, TNF-α, COX-2, iNOS, amphiregulin, tenascin-c; assay: Intrapulmonary mRNA quantification (real-time PCR, normalized to PPIA) in lung tissue of LPS-septic pigs
Experimental: (§1) Following instrumentation baseline parameters were assessed at healthy state. FIG. 1 summarizes the experimental protocol: systemic inflammation was induced by continuous LPS infusion (Escherichia coli serotype O111:B4, Sigma-Aldrich, Switzerland) for one hour at 100 μg kg^−1 h^−1, followed by 10 μg kg^−1h^−1 for the entire experiment. Initial high-dose infusion was combined with a non-protective ventilation setting (Vt 25 mL kg^−1, zero PEEP, FiO2 1.0) to add a VILI component. Afterwards the ventilation mode was switched to a more lung protective setting: Vt of 8 mL kg^−1, PEEP 5 cm H2O, FiO2 of 0.4-0.5, and a variable respiratory rate to maintain a pH>7.2. The animals were monitored over six hours after sepsis induction. During the induction phase a non-participant randomized the animals into two groups and prepared the peptide solution as previously described (Hartmann E K et al, Acta anaesthesiologica Scandinavica 2013, 57(3):334-341) for blinded endotracheal inhalation.
(§2) Group (1) animals, to which 1 mg kg^−1 of a compound of formula I of the amino acid sequence SEQ ID NO:5 was administered at zero and three hours;
To determine intrapulmonary inflammation mRNA levels of pro-inflammatory cytokines interleukin-1β (IL-1β), interleukin-6 (IL-6), TNF-α, and enzymes prostaglandin G/H synthase-2 (COX-2) and inducible nitric oxide synthase (iNOS) were quantified. Amphiregulin and tenascin-c expression levels were examined as surrogates of mechanical stress and remodeling. Four representative samples from the left lung (upper/lower lobe, each dependent/non-dependent) were collected, snap frozen in liquid nitrogen and stored at −80° C. RNA extraction and quantification procedure by real-time polymerase chain reaction (Lightcycler 480 PCR System, Roche Applied Science, Germany) was conducted as previously described in detail.[17-19] mRNA expression data were normalized against peptidylprolyl isomerase A (PPIA) as control gene.
(§3) Data are expressed as median and interquartile range (IQR) respectively box-plots. Intergroup comparisons were tested with the Mann-Whitney-U-Test. If multiple testing was performed, P values were adjusted by the Bonferroni correction. Intragroup time courses of repetitively measured parameters were analyzed by Friedman ANOVA on ranks and post-hoc Student-Newman-Keuls-Test. P values below 0.05 were regarded as significant. Physiological data (ventilator and hemodynamic data) as set out in Table 1 were analyzed in explorative manner only. The statistical software SigmaPlot 11.0 (Systat Inc., USA) was used.

[2] = tested on: porcine model of lipopolysaccharide (LPS)-induced sepsis; conditions: for CO (cardiac output) / CVP (central venous pressure) / EVLW (extravascular lung water content) / MAP (mean arterial pressure) / MPAP (mean pulmonary arterial pressure) / NA (noradrenaline dosage required for hemodynamic stability) / PaCO2 (arterial partial pressure of carbon dioxide) / Pendinsp (end-inspiratory pressure) / RR (respiratory rate): median
Experimental: Following animal care committee approval (Landesuntersuchungsamt Rheinland-Pfalz, Koblenz, Germany; approval number 23 177-07/G12-1-058) 18 juvenile pigs (weight 25-27 kg) were examined in a randomized, investigator-blinded setting.
After sedation with intramuscular injection of ketamine (8 mg kg^−1) and midazolam (0.2 mg kg^−1) and preparation of vascular access, anesthesia was induced and maintained by intravenous propofol and fentanyl administration (8-12 mg kg^−1 h^−1/0.1-0.2 mg h^−1). A single dose of atracurium (0.5 mg kg^−1) was applied to facilitate orotracheal intubation. Ventilation (Respirator: AVEA®, CareFusion, USA) was started in pressure-controlled mode with a tidal volume of (Vt) of 8 mL kg^−1, positive end-expiratory pressure (PEEP) of 5 cmH2O, FiO2 of 0.3-0.4 and a variable respiratory rate to maintain normocapnia. A balanced saline solution (Sterofundin iso, B. Braun, Germany) was continuously infused at a rate of 10 mL kg^−1h^−1. Vascular catheters were placed ultrasound-guided in Seldinger's technique and under sterile conditions: an arterial line, a pulse contour cardiac output catheter (PiCCO, Pulsion Medical Systems, Germany) and central venous line were inserted via femoral vein access. A 7.5-French introducer for a pulmonary artery catheter was placed via the right internal jugular vein. Ventilatory and extended hemodynamic parameters were recorded continuously (Datex S/5, GE Healthcare, Germany). Body temperature was measured by a rectal probe and normothermia was maintained by body surface warming
as §1, §2
To maintain hemodynamic stability (mean arterial pressure >60 mmHg) additional fluid boli were administered (150 ml of balanced saline or hydroxyethyl starch once every hour). Persisting instability was treated by continuous central venous noradrenaline infusion. At the end of the experiments the animals were killed in deep general anesthesia by intravenous injection of propofol (200 mg) and potassium chloride (40 mval).
as §3

LPS-induced lung injury = assay: Post-mortem macroscopic and histopathological lung injury scoring and lung wet to dry ratio in LPS-septic pigs; conditions: for hemorrhage, histopathological score / alveolar edema, histopathological score / epithelial destruction, histopathological score / inflammatory infiltration, histopathological score / interstitial edema, histopathological score / microatelectasis, histopathological score / overdistension, histopathological score: post-mortem at 6 h, median (IQR); for hemorrhage, histopathological score: 0 to 5 points, CTRL higher, P<0.05 vs. Group (1); for alveolar edema, histopathological score / epithelial destruction, histopathological score / inflammatory infiltration, histopathological score / interstitial edema, histopathological score / microatelectasis, histopathological score / overdistension, histopathological score: severity 0 to 5 points
Experimental: as §1, §2
The lungs were removed en-bloc after thoracotomy. A macroscopic lung injury score was assessed as previously described in detail (Lim C M et al, Lung 2003, 181(1):23-34). Four ventral and dorsal segments (each upper/lower right, upper/lower left) of the lung surface were examined for hemorrhage and congestion (2 points>50%, 1 point for<50%, 0 points for no or minimal changes). The right lung was fixed in 10% buffered formalin. Representative tissue samples were paraffin embedded and cut for hematoxylin and eosin staining A blinded investigator under supervision of a senior pathologist performed the histopathological assessment. In different lung regions (non-dependent periphery and bronchial, dependent periphery and bronchial) morphological changes were rated for seven criteria (alveolar edema, interstitial edema, hemorrhage, inflammatory infiltration, epithelial damage, microatelectasis and overdistension). The severity of each parameter ranged from 0 (no occurrence) to 5 points (complete field). For every lung region we used the mean value of four non-overlapping microscopy fields. The sum of the regional scores in all lung regions adds to a maximum injury score of 140 points (7 parameters×5 maximum points per parameter from 4 lung regions). Additionally the regional distribution of each parameter was assessed in the dependent versus non-dependent lung regions. Similar scoring procedures were described previously (Spieth P M et al, Intensive Care Med 2007, 33(2):308-314; Wang H M et al, Eur Surg Res 2010, 45(3-4):121-133).The left lung was weighted immediately after removal and dried afterwards at 60° C. for 72 hours to determine the dry weight and wet to dry ratio (W/D).
as §3

plasma IL-6 and TNF-α = assay: Plasma levels of IL-6 and TNF-α by ELISA in LPS-septic pigs; conditions: vs CTRL; repetitive inhalation; compared with the effect on pulmonary expression
Experimental: as §1, with “During the induction phase a non-participant randomized the animals into two groups and prepared the peptide solution as previously described (Hartmann E K et al, Acta anaesthesiologica Scandinavica 2013, 57(3):334-341) for blinded endotracheal inhalation.” left out
Blood gas values were obtained using a Rapidlab 248 device (Bayer Healthcare, Germany) Hematological parameters were sampled during baseline, sepsis induction and after three and six hours. Lactate plasma levels, leucocyte and platelet counts were analyzed by the Institute of Laboratory Medicine, Medical Center of the Johannes Gutenberg-University. The plasma levels of IL-6 and TNF-α were determined by quantifying enzyme linked immunosorbent assays according to the manufacturer's instructions (Porcine IL-6 Quantikine ELISA, Porcine TNF-α Quantikine ELISA, R&D Systems, Germany).

[3] = vs CTRL, lung tissue at 6 h, 1 mg kg^−1 inhaled at zero and three hours
[4] = 3 h, 1 mg kg^−1 inhaled at zero and three hours
[5] = 6 h, 1 mg kg^−1 inhaled at zero and three hours
[6] = Baseline, before LPS and inhalation
[7] = Sepsis/VILI induction, before first inhalation

Cyclo(4-aminobutanoic acid-GQRETPEGAEAKPWYD) (XGQRETPEGAEAKPWYD; cyclized via N-terminal 4-aminobutanoic acid to Asp side chain; cyclized compound for use in inflammation) [SEQ ID NO:5, amide bond between amino group of N-terminal 4-aminobutanoic acid and β-carboxyl side chain of C-terminal aspartic acid]
intrapulmonary inflammatory response ([1]; at 6 hours post insult, peptide inhalation, LPS-induced lung injury in pigs): significantly reduced
intrapulmonary overall mRNA expression of COX-2 ([1]; vs CTRL, p=0.003, lung tissue at 6 h, 1 mg kg^−1 inhaled at zero and three hours): significantly lower
intrapulmonary tenascin-c expression ([1]; vs CTRL, p=0.015, lung tissue at 6 h, 1 mg kg^−1 inhaled at zero and three hours): decreased
intrapulmonary overall mRNA expression of TNF-α ([1]; vs CTRL, p=0.041, lung tissue at 6 h, 1 mg kg^−1 inhaled at zero and three hours): significantly lower
intrapulmonary overall mRNA expression of IL-6 ([1]; vs CTRL, p=0.043, lung tissue at 6 h, 1 mg kg^−1 inhaled at zero and three hours): significantly lower
intrapulmonary mRNA expression of IL-1β [1, 3]: less differences
intrapulmonary mRNA expression of iNOS [1, 3]: less differences
CO (cardiac output) [2, 4]: 3.2 L/min
CVP (central venous pressure) [2, 4]: 11 mmHg
EVLW (extravascular lung water content) [2, 4]: 12 mL/kg
MAP (mean arterial pressure) [2, 4]: 61 mmHg
MPAP (mean pulmonary arterial pressure) [2, 4]: 33 mmHg
NA (noradrenaline dosage required for hemodynamic stability) [2, 4]: 0.2 µg/kg/min
PaCO2 (arterial partial pressure of carbon dioxide) [2, 4]: 43 mmHg
Pendinsp (end-inspiratory pressure) [2, 4]: 22 cmH2O
RR (respiratory rate) [2, 4]: 34 min⁻¹
CO (cardiac output) [2, 5]: 3.7 L/min
CVP (central venous pressure) [2, 5]: 13 mmHg
EVLW (extravascular lung water content) [2, 5]: 13 mL/kg
MAP (mean arterial pressure) [2, 5]: 66 mmHg
MPAP (mean pulmonary arterial pressure) [2, 5]: 30 mmHg
NA (noradrenaline dosage required for hemodynamic stability) [2, 5]: 0.8 µg/kg/min
PaCO2 (arterial partial pressure of carbon dioxide) [2, 5]: 43 mmHg
Pendinsp (end-inspiratory pressure) [2, 5]: 19 cmH2O
RR (respiratory rate) [2, 5]: 32 min⁻¹
CO (cardiac output) [2, 6]: 4.5 L/min
CVP (central venous pressure) [2, 6]: 11 mmHg
EVLW (extravascular lung water content) [2, 6]: 10 mL/kg
MAP (mean arterial pressure) [2, 6]: 90 mmHg
MPAP (mean pulmonary arterial pressure) [2, 6]: 22 mmHg
NA (noradrenaline dosage required for hemodynamic stability) [2, 6]: 0 µg/kg/min
PaCO2 (arterial partial pressure of carbon dioxide) [2, 6]: 45 mmHg
RR (respiratory rate) [2, 6]: 29 min⁻¹
Pendinsp (end-inspiratory pressure) ([2]; Baseline, healthy state before LPS and inhalation): 14 cmH2O
CO (cardiac output) [2, 7]: 4.5 L/min
CVP (central venous pressure) [2, 7]: 10 mmHg
EVLW (extravascular lung water content) [2, 7]: 11 mL/kg
MAP (mean arterial pressure) [2, 7]: 100 mmHg
MPAP (mean pulmonary arterial pressure) [2, 7]: 23 mmHg
NA (noradrenaline dosage required for hemodynamic stability) [2, 7]: 0 µg/kg/min
PaCO2 (arterial partial pressure of carbon dioxide) [2, 7]: 35 mmHg
Pendinsp (end-inspiratory pressure) [2, 7]: 22 cmH2O
RR (respiratory rate) [2, 7]: 9 min⁻¹
Raw (airway resistance) ([2]; pig, in vivo): 10 cmH2O L^−1s^−1 and 12 cmH2O L^−1s^−1 and 11 cmH2O L^−1s^−1
hemorrhage, histopathological score (LPS-induced lung injury; dependent lung regions): 0.1 (0.8)
alveolar edema, histopathological score (LPS-induced lung injury; dependent lung regions): 0 (0.1)
epithelial destruction, histopathological score (LPS-induced lung injury; dependent lung regions): 0 (0)
inflammatory infiltration, histopathological score (LPS-induced lung injury; dependent lung regions): 3.4 (1.6)
interstitial edema, histopathological score (LPS-induced lung injury; dependent lung regions): 1.3 (0;8)
microatelectasis, histopathological score (LPS-induced lung injury; dependent lung regions): 3.8 (2.4)
overdistension, histopathological score (LPS-induced lung injury; dependent lung regions): 3.5 (1.7)
pulmonary wet to dry ratio (W/D) (LPS-induced lung injury; left lung, vs CTRL Group (2), trend): higher
hemorrhage, histopathological score (LPS-induced lung injury; non-dependent lung regions): 0 (0)
alveolar edema, histopathological score (LPS-induced lung injury; non-dependent lung regions): 0 (0)
epithelial destruction, histopathological score (LPS-induced lung injury; non-dependent lung regions): 0 (0)
inflammatory infiltration, histopathological score (LPS-induced lung injury; non-dependent lung regions): 3.8 (1.4)
interstitial edema, histopathological score (LPS-induced lung injury; non-dependent lung regions): 0.9 (1.1)
microatelectasis, histopathological score (LPS-induced lung injury; non-dependent lung regions): 3.8 (1.4)
overdistension, histopathological score (LPS-induced lung injury; non-dependent lung regions): 4.1 (0.9)
post-mortem macroscopic and histologic lung injury (LPS-induced lung injury; vs CTRL Group (2), sustained lung injury in both groups): trend towards a less pronounced damage
plasma level of IL-6 (plasma IL-6 and TNF-α): less affected
plasma level of TNF-α (plasma IL-6 and TNF-α): less affected

Reference: patent US20170014472A1, “ATTENUATION OF INTRAPULMONARY INFLAMMATION” (APEPTICO FORSCHUNG UND E[…], priority 2014, published 2017)
